Measured values published in patent US11226337B2, “Chemoproteomic profiling of protein electrophilic and oxidative post-translational modifications” (Zenagem, LLC, priority 2017, dated 2022).

Columns and labels:
Assay in all cases: SILAC RP-ABPP
Assay type in all cases: cell-based
[1] = target: T1, TPP1 Tripeptidylpeptidase 1 (O14773) (Homo sapiens, UniProt O14773); settings: SILAC H/L, MDA-MB-231
T1 construct: In Situ Labelling of Cells with Hydrazine Probes for MS Experiments; endogenous in cells; host or cells: HEK293T and MDA-MB-231
T1 sequence (O14773 196-563): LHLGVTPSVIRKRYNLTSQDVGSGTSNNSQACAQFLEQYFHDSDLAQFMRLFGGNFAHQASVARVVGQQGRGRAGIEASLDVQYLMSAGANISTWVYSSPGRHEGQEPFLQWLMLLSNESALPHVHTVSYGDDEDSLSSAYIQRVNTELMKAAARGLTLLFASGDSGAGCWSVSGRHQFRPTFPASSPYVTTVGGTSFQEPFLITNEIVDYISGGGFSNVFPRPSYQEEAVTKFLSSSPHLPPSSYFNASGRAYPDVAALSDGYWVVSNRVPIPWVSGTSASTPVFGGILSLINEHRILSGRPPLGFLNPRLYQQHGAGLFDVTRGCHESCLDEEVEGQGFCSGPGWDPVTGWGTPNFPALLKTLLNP

[2] = target: T2, IBA57 Putative transferase CAF17 (Q5T440) (Homo sapiens, UniProt Q5T440); settings: SILAC H/L, HEK293T
T2 construct: shared by both the endogenous and recombinant forms of these proteins; endogenous in cells; host or cells: HEK293T and MDA-MB-231
T2 sequence (Q5T440 40-356): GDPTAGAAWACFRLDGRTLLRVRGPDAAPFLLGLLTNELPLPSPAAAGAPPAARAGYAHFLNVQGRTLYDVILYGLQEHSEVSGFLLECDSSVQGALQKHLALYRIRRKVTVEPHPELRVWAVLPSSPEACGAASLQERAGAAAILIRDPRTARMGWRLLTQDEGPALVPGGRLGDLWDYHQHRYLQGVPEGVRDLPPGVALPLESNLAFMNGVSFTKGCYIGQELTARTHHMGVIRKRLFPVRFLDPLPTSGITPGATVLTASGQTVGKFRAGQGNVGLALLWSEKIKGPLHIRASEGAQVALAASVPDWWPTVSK

[3] = target: T3, GLB1 Betagalactosidase (P16278) (Homo sapiens, UniProt P16278); settings: SILAC H/L
T3 construct: shared by both the endogenous and recombinant forms of these proteins; endogenous in cells; host or cells: HEK293T and MDA-MB-231
T3 sequence (P16278 29-677): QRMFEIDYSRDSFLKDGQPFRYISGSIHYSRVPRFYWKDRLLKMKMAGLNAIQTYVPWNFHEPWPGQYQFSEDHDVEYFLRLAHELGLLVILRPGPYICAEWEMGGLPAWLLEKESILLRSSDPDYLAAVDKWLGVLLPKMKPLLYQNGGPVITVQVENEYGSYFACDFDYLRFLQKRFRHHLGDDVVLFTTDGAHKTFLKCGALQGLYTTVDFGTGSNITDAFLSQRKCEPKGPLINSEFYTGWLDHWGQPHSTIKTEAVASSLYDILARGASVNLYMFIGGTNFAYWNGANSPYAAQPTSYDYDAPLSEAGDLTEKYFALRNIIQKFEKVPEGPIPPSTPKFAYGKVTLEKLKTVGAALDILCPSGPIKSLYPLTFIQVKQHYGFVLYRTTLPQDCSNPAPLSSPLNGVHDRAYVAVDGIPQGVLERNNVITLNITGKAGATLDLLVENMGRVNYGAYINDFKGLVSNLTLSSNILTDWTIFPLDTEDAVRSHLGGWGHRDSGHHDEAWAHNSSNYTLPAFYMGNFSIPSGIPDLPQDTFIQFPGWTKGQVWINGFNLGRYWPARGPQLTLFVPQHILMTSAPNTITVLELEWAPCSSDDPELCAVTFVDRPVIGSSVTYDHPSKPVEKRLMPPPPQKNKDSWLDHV

| enrichment ratioavg ([1]; probe 2 1 mM 0.5 h vs probe 4) | competition ratioavg ([1]; probe 2 vs probe 2+10x probe 4) | enrichment ratioavg ([2]; probe 2 1 mM 0.5 h vs probe 4) | competition ratioavg ([2]; probe 2 vs probe 2+10x probe 4) | enrichment ratioavg ([3]; probe 2 1 mM 0.5 h vs probe 4, MDA-MB-231) | competition ratioavg ([3]; probe 2 vs probe 2+10x probe 4, MDA-MB-231) | SMILES | enrichment ratioavg ([1]; probe 1 3 mM 0.5 h vs probe 3) | competition ratioavg ([1]; probe 1 vs probe 1+10x probe 3) | enrichment ratioavg ([2]; probe 1 3 mM 0.5 h vs probe 3) | competition ratioavg ([2]; probe 1 vs probe 1+10x probe 3) | enrichment ratioavg ([3]; probe 1 3 mM 0.5 h vs probe 3, HEK293T) | competition ratioavg ([3]; probe 1 vs probe 1+10x probe 3, HEK293T) |
| --- | --- | --- | --- | --- | --- | --- | --- | --- | --- | --- | --- | --- |
|  |  |  |  |  |  | C#CCNN.Cl [probe 1, prop-2-yn-1-ylhydrazine hydrochloride] | 15 | 3 | 14 | 3 | 12 | 3 |
| 18 | 4 | 9 | 4 | 6 | 2 | C#CCCNC(=O)c1ccc(NN)cc1.Cl [probe 2, N-(but-3-yn-1-yl)-4-hydrazinylbenzamide hydrochloride] |  |  |  |  |  |  |
